Test results as given in patent publication US20240018123A1, “COMPOUND FOR INHIBITING OR DISINTEGRATING ANDROGEN RECEPTOR, AND PHARMACEUTICAL USE THEREOF” (KOREA RESEARCH INSTITUTE OF CHEMICAL TECHNOLOGY, priority 2020, published 2024).

Tested on: VCaP cells
Assay: Cytotoxicity assessment (Cell-titer-glo cell viability), VCaP
Details: read-out: VCaP (CC50); VCaP cells, 6 days of treatment, Cell-titer-glo, vs DMSO

SMILES | CC50
CC1(C)C(NC(=O)c2ccc(C#CC3CCN(CC4CCN(C(=O)COc5ccc6nnn(C7CCC(=O)NC7=O)c(=O)c6c5)CC4)CC3)nc2)C(C)(C)C1Oc1ccc(C#N)c(Cl)c1 (stereo not drawn) [Example 133, N-((1r,3r)-3-(3-chloro-4-cyanophenoxy)-2,2,4,4-tetramethylcyclobutyl)-6-((1-((1-(2-((3-(2,6-dioxopiperidin-3-yl)-4-oxo-3,4-dihydrobenzo[d][1,2,3]triazin-6-yl)oxy)acetyl)piperidin-4-yl)methyl)piperidin-4-yl)ethynyl)nicotinamide] | 15 nM
CC1(C)[C@H](NC(=O)c2ccc(-n3cc(CN4CCN(C(=O)CNc5ccc6nnn(C7CCC(=O)NC7=O)c(=O)c6c5)CC4)nn3)cc2)C(C)(C)[C@H]1Oc1ccc(C#N)c(Cl)c1 (stereo partly drawn) [Example 123, N-((1r,3r)-3-(3-chloro-4-cyanophenoxy)-2,2,4,4-tetramethylcyclobutyl)-4-(4-((4-((3-(2,6-dioxopiperidin-3-yl)-4-oxo-3,4-dihydrobenzo[d][1,2,3]triazin-6-yl)glycyl)piperazin-1-yl)methyl)-1H-1,2,3-triazol-1-yl)benzamide] | 55 nM
CC1(C)C(NC(=O)c2ccc(C#CC3CCN(C(=O)C4CN(c5ccc6nnn(C7CCC(=O)NC7=O)c(=O)c6c5)C4)CC3)cc2)C(C)(C)C1Oc1ccc(C#N)c(Cl)c1 (stereo not drawn) [Example 95, N-((1r,3r)-3-(3-chloro-4-cyanophenoxy)-2,2,4,4-tetramethylcyclobutyl)-4-((1-(1-(3-(2,6-dioxopiperidin-3-yl)-4-oxo-3,4-dihydrobenzo[d][1,2,3]triazin-6-yl)azetidine-3-carbonyl)piperidin-4-yl)ethynyl)benzamide] | 4.5 nM
CC1(C)C(NC(=O)c2ccc(N3CC4CN(C(=O)CNc5ccc6nnn(C7CCC(=O)NC7=O)c(=O)c6c5)CC4C3)cc2)C(C)(C)C1Oc1ccc(C#N)c(Cl)c1 (stereo not drawn) [Example 136, N-((1r,3r)-3-(3-chloro-4-cyanophenoxy)-2,2,4,4-tetramethylcyclobutyl)-4-(5-((3-(2,6-dioxopiperidin-3-yl)-4-oxo-3,4-dihydrobenzo[d][1,2,3]triazin-6-yl)glycyl)hexahydropyrrolo[3,4-c]pyrrol-2(1H)-yl)benzamide] | 67.7 nM
CC1(C)C(NC(=O)c2ccc(N3CCN(CC4CCN(CCNC(=O)CNc5ccc6nnn(C7CCC(=O)NC7=O)c(=O)c6c5)CC4)CC3)cc2)C(C)(C)C1Oc1ccc(C#N)c(Cl)c1 (stereo not drawn) [Example 59, N-((1r,3r)-3-(3-chloro-4-cyanophenoxy)-2,2,4,4-tetramethylcyclobutyl)-4-(4-((1-(2-(2-((3-(2,6-dioxopiperidin-3-yl)-4-oxo-3,4-dihydrobenzo[d][1,2,3]triazin-6-yl)amino)acetamido)ethyl)piperidin-4-yl)methyl)piperazin-1-yl)benzamide] | ~1000 nM
CC1(C)C(NC(=O)c2ccc(C#CC3CCN(CC4CCN(C(=O)C5CCN(c6ccc7nnn(C8CCC(=O)NC8=O)c(=O)c7c6)CC5)CC4)CC3)nc2)C(C)(C)C1Oc1ccc(C#N)c(Cl)c1 (stereo not drawn) [Example 131, N-((1r,3r)-3-(3-chloro-4-cyanophenoxy)-2,2,4,4-tetramethylcyclobutyl)-6-((1-((1-(1-(3-(2,6-dioxopiperidin-3-yl)-4-oxo-3,4-dihydrobenzo[d][1,2,3]triazin-6-yl)piperidine-4-carbonyl)piperidin-4-yl)methyl)piperidin-4-yl)ethynyl)nicotinamide] | 18.5 nM
CC1(C)C(NC(=O)c2ccc(C#CCC3CCN(CC4CCN(C(=O)C5CCN(c6ccc7nnn(C8CCC(=O)NC8=O)c(=O)c7c6)CC5)CC4)CC3)nc2)C(C)(C)C1Oc1ccc(C#N)c(Cl)c1 (stereo not drawn) [Example 126, N-((1r,3r)-3-(3-chloro-4-cyanophenoxy)-2,2,4,4-tetramethylcyclobutyl)-6-(3-(1-((1-(1-(3-(2,6-dioxopiperidin-3-yl)-4-oxo-3,4-dihydrobenzo[d][1,2,3]triazin-6-yl)piperidine-4-carbonyl)piperidin-4-yl)methyl)piperidin-4-yl)prop-1-yn-1-yl)nicotinamide] | 40 nM
CC1(C)C(NC(=O)c2ccc(-n3cc(CCOCCOCCNC(=O)C4CCN(c5ccc6nnn(C7CCC(=O)NC7=O)c(=O)c6c5)CC4)nn3)cc2)C(C)(C)C1Oc1ccc(C#N)c(Cl)c1 (stereo not drawn) [Example 158, N-(2-(2-(2-(1-(4-(((1r,3r)-3-(3-chloro-4-cyanophenoxy)-2,2,4,4-tetramethylcyclobutyl)carbamoyl)phenyl)-1H-1,2,3-triazol-4-yl)ethoxy)ethoxy)ethyl)-1-(3-(2,6-dioxopiperidin-3-yl)-4-oxo-3,4-dihydrobenzo[d][1,2,3]triazin-6-yl)piperidine-4-carboxamide] | 38.8 nM
CC1(C)C(NC(=O)c2ccc(-n3cc(CCNC(=O)C4CN(c5ccc6nnn(C7CCC(=O)NC7=O)c(=O)c6c5)C4)nn3)cc2)C(C)(C)C1Oc1ccc(C#N)c(Cl)c1 (stereo not drawn) [Example 155, N-(2-(1-(4-(((1r,3r)-3-(3-chloro-4-cyanophenoxy)-2,2,4,4-tetramethylcyclobutyl)carbamoyl)phenyl)-1H-1,2,3-triazol-4-yl)ethyl)-1-(3-(2,6-dioxopiperidin-3-yl)-4-oxo-3,4-dihydrobenzo[d][1,2,3]triazin-6-yl)azetidine-3-carboxamide] | 177 nM
CC1(C)C(NC(=O)c2ccc(-c3cnn(C4CCN(CC5CCN(C(=O)CNc6ccc7nnn(C8CCC(=O)NC8=O)c(=O)c7c6)CC5)CC4)c3)nc2)C(C)(C)C1Oc1ccc(C#N)c(Cl)c1 (stereo not drawn) [Example 125, N-((1r,3r)-3-(3-chloro-4-cyanophenoxy)-2,2,4,4-tetramethylcyclobutyl)-6-(1-(1-((1-((3-(2,6-dioxopiperidin-3-yl)-4-oxo-3,4-dihydrobenzo[d][1,2,3]triazin-6-yl)glycyl)piperidin-4-yl)methyl)piperidin-4-yl)-1H-pyrazol-4-yl)nicotinamide] | 15.5 nM
CC1(C)C(NC(=O)c2ccc(-n3cc(CNC(=O)C4CN(c5ccc6nnn(C7CCC(=O)NC7=O)c(=O)c6c5)C4)nn3)cc2)C(C)(C)C1Oc1ccc(C#N)c(Cl)c1 (stereo not drawn) [Example 151, N-((1-(4-(((1r,3r)-3-(3-chloro-4-cyanophenoxy)-2,2,4,4-tetramethylcyclobutyl)carbamoyl)phenyl)-1H-1,2,3-triazol-4-yl)methyl)-1-(3-(2,6-dioxopiperidin-3-yl)-4-oxo-3,4-dihydrobenzo[d][1,2,3]triazin-6-yl)azetidine-3-carboxamide] | 25.6 nM
CC1(C)C(NC(=O)c2ccc(C#CC3CCN(CC4CCN(C(=O)CNc5ccc6nnn(C7CCC(=O)NC7=O)c(=O)c6c5)CC4)CC3)cc2)C(C)(C)C1Oc1ccc(C#N)c(Cl)c1 (stereo not drawn) [Example 98, N-((1r,3r)-3-(3-chloro-4-cyanophenoxy)-2,2,4,4-tetramethylcyclobutyl)-4-((1-((1-((3-(2,6-dioxopiperidin-3-yl)-4-oxo-3,4-dihydrobenzo[d][1,2,3]triazin-6-yl)glycyl)piperidin-4-yl)methyl)piperidin-4-yl)ethynyl)benzamide] | 6.72 nM
CC1(C)C(NC(=O)c2ccc(-n3cc(CN4CCN(C(=O)C5CCN(c6ccc7nnn(C8CCC(=O)NC8=O)c(=O)c7c6)CC5)CC4)nn3)cc2)C(C)(C)C1Oc1ccc(C#N)c(Cl)c1 (stereo not drawn) [Example 121, N-((1r,3r)-3-(3-chloro-4-cyanophenoxy)-2,2,4,4-tetramethylcyclobutyl)-4-(4-((4-(1-(3-(2,6-dioxopiperidin-3-yl)-4-oxo-3,4-dihydrobenzo[d][1,2,3]triazin-6-yl)piperidine-4-carbonyl)piperazin-1-yl)methyl)-1H-1,2,3-triazol-1-yl)benzamide] | 18 nM
CC1(C)C(NC(=O)c2ccc(-n3cc(CCNc4ccc5nnn(C6CCC(=O)NC6=O)c(=O)c5c4)nn3)cc2)C(C)(C)C1Oc1ccc(C#N)c(Cl)c1 (stereo not drawn) [Example 153, N-((1r,3r)-3-(3-chloro-4-cyanophenoxy)-2,2,4,4-tetramethylcyclobutyl)-4-(4-(2-((3-(2,6-dioxopiperidin-3-yl)-4-oxo-3,4-dihydrobenzo[d][1,2,3]triazin-6-yl)amino)ethyl)-1H-1,2,3-triazol-1-yl)benzamide] | 45.4 nM
CC1(C)C(NC(=O)c2ccc(C#CCC3CCN(CC4CCN(C(=O)CNc5ccc6nnn(C7CCC(=O)NC7=O)c(=O)c6c5)CC4)CC3)nc2)C(C)(C)C1Oc1ccc(C#N)c(Cl)c1 (stereo not drawn) [Example 128, N-((1r,3r)-3-(3-chloro-4-cyanophenoxy)-2,2,4,4-tetramethylcyclobutyl)-6-(3-(1-((1-((3-(2,6-dioxopiperidin-3-yl)-4-oxo-3,4-dihydrobenzo[d][1,2,3]triazin-6-yl)glycyl)piperidin-4-yl)methyl)piperidin-4-yl)prop-1-yn-1-yl)nicotinamide] | 11 nM
CC1(C)[C@H](NC(=O)c2ccc(N3CC4CN(CC5CCN(C(=O)C6CN(c7ccc8nnn(C9CCC(=O)NC9=O)c(=O)c8c7)C6)CC5)CC4C3)cc2)C(C)(C)[C@H]1Oc1ccc(C#N)c(Cl)c1 (stereo partly drawn) [Example 140, N-((1r,3r)-3-(3-chloro-4-cyanophenoxy)-2,2,4,4-tetramethylcyclobutyl)-4-(5-((1-(1-(3-(2,6-dioxopiperidin-3-yl)-4-oxo-3,4-dihydrobenzo[d][1,2,3]triazin-6-yl)azetidine-3-carbonyl)piperidin-4-yl)methyl)hexahydropyrrolo[3,4-c]pyrrol-2(1H)-yl)benzamide] | 30 nM
CC1(C)C(NC(=O)c2ccc(-c3cnn(C4CCN(CC5CCN(C(=O)C6CN(c7ccc8nnn(C9CCC(=O)NC9=O)c(=O)c8c7)C6)CC5)CC4)c3)nc2)C(C)(C)C1Oc1ccc(C#N)c(Cl)c1 (stereo not drawn) [Example 114, N-((1r,3r)-3-(3-chloro-4-cyanophenoxy)-2,2,4,4-tetramethylcyclobutyl)-6-(1-(1-((1-(1-(3-(2,6-dioxopiperidin-3-yl)-4-oxo-3,4-dihydrobenzo[d][1,2,3]triazin-6-yl)azetidine-3-carbonyl)piperidin-4-yl)methyl)piperidin-4-yl)-1H-pyrazol-4-yl)nicotinamide] | 14 nM
CC1(C)C(NC(=O)c2ccc(-n3cc(CC4CCN(C(=O)C5CCN(c6ccc7nnn(C8CCC(=O)NC8=O)c(=O)c7c6)CC5)CC4)nn3)cc2)C(C)(C)C1Oc1ccc(C#N)c(Cl)c1 (stereo not drawn) [Example 104, N-((1r,3r)-3-(3-chloro-4-cyanophenoxy)-2,2,4,4-tetramethylcyclobutyl)-4-(4-((1-(1-(3-(2,6-dioxopiperidin-3-yl)-4-oxo-3,4-dihydrobenzo[d][1,2,3]triazin-6-yl)piperidine-4-carbonyl)piperidin-4-yl)methyl)-1H-1,2,3-triazol-1-yl)benzamide] | 16.9 nM
